Series [1] has as its system Meth A. The experiment in a line: CD4 depletion (GK1.5) in immunized, Meth A-challenged mice. Type of series: in vivo, BALB/cJ mice. From the text: In order to determine if any peptides within Ccdc85c^MUT could be presented by MHC II molecules, we analyzed the interaction of H2-A^d and H2-E^d with TYIRPFETKVK, YIRPFETKVK and IRPFETKVK as well as their wild type counterparts, using a cell-surface density assay. In this assay, β-chains of H2-Ab1^d or H2-Eb1^d are expressed in fusion with the peptide of interest and the amount of cell-surface MHC II, as a measure of intrinsic stability of MHC II, is quantified in engineered conditions. The measured cell-surface MHC density correlates well with the actual affinity of the peptide to MHC II. […] This was observed when CD4 depletion was carried out during the priming phase alone (as in Supplementary Fig. 2b), or throughout the entire experiment including the effector phase (i.e. post tumor challenge).
Supplementary Fig. 2. Assessing CD4 response to Ccdc85c . a Presentation of Ccdc85cMUT and Ccdc85cWT peptides by H2-IA and H2-IE are measured by cell-surface density assay. The y-axis indicates MHC/GFP (ratio of MHC MFI to GFP MFI) for MHC II-peptide, normalized to the MHC/GFP of the negative control peptide, G9, 9-mer all-glycine. Four technical and two independent biological repeats of this experiment have been practiced. The following additional negative control peptides are used: G12 (12-mer all-glycine) and GGS12 (4x(glycine-glycine-serine). b. Naïve BALB/cJ mice were injected with 250 µg of CD4 depleting GK1.5 antibody or isotype control during the priming phase (6 days before the first immunization). Mice were immunized, as described in the Methods, with Ccdc85cMUT and were challenged with 95,000 Meth A cells. The differences between tumor growth curves […]
(1 picture or pasted object on this page, not shown here)

The test system of series [2] is tumor infiltrating CD45 + cells. The experiment in a line: scRNA seq of tumor infiltrating CD45+ cells in immunized mice. In kind it is in vivo, BALB/cJ mice. The text has this: Tumor microenvironment (TME) of Ccdc85c^MUT-immunized mice was examined using single cell RNA sequencing (scRNA seq). BMDCs- immunized mice were used as controls. As a peptide control, mice immunized with a neoepitope Alms1^MUT were used. […] Mice were immunized with Ccdc85c^MUT, Alms1^MUT (peptide control) or BMDCs (control) as described in Methods, and were challenged with Meth A. RNA from CD45 + cells (estimated 15,925 cells for the four libraries after QC, with an average coverage of 32,663 reads per cell and median 1,339 genes per cell) was sequenced. Data from the four libraries were pooled and clustered based on the gene expression pattern of each as described in Methods. Annotation of the clusters was informed by both differentially expressed genes (DE Genes) and per cluster highly expressed genes identified by the TF-IDF analysis as described in Methods. Two major and distinct clusters were identified namely, myeloid and lymphoid. […] The proportion of lymphoid versus myeloid compartments in the Ccdc85c^MUT library was very different compared to the Alms1^MUT or control groups. The Ccdc85c^MUT library was mostly composed of lymphoid cells (62.68% lymphoid and 37.32% myeloid), while the control groups and mice immunized with Alms1^MUT were mostly composed of the myeloid compartment (~35% lymphoid and ~64% myeloid) (Fig. 2a, right panel). In order to study different cell types, lymphoid and myeloid clusters were re-clustered into 6 and 9 sub-clusters, respectively (Fig. 2a, bottom panel). The six identified lymphoid clusters were: CD4 T cells (CD4(1)), NKC(1), naive/early activated CD4 T cells (CD4(2), defined by a high expression of Sell, Il7r, Tcf7 and Ccr7 genes and low expression of Il2ra and lack of expression of effector and cytotoxicity genes), NKC(2) (less cytotoxic and active than NKC(1)), CD8 T cells (CD8) and proliferating CD4/CD8 T cells (Pr. CD4/CD8, defined by higher expression of Stmn1 and Mki67 genes and cell cycle gene expression analysis, described in Methods). The selected genes used as markers to annotate each lymphocyte cluster are listed in the summary heat map (Fig. 2b, right panel).
Fig. 2 Immune response in mice immunized with Ccdc85c^MUT and control neoepitope Alms1.1^MUT. a Tumors from mice immunized with Ccdc85c^MUT or Alms1.1^MUT as well as two groups of control mice immunized with BMDCs were harvested 10 days after tumor challenge. Tumor infiltrating CD45 + cells were sorted and analyzed by scRNA seq as described in Methods and Supplementary Fig 9b. Combined scRNA seq data from four libraries were analyzed. The t-SNE[34] plots of all intra-tumoral immune cells as well as myeloid and lymphoid compartments are shown in the top left panel. Myeloid and lymphoid composition for each library is shown on the right panel. The myeloid and lymphoid sub-clusters are shown in the bottom panels. See text for definition of each sub-cluster. b Heat maps of the indicated genes in the myeloid and lymphoid compartments are shown. The heat map genes were selected from the list of differentially expressed genes, genes with a high average TF-IDF score, and typical cell type markers. The average gene expression for each cluster was normalized by dividing it from the maximum value of each row (gene). c Summary heat map of selected genes associated with cytotoxicity for pooled activated T cells is shown. The heat map illustrates scaled (Z-scored) average gene expression by library. TEXT PRINTED IN THE PICTURE: (a) Alms1.1^MUT: Lymphoid cells: 34.28%; Myeloid cells: 65.72% | (a) Ccdc85c^MUT: Lymphoid cells: 62.68%; Myeloid cells: 37.32% DOUBTS OF THE COPYIST ABOUT THIS PICTURE: Panel a, bar chart: no measure is printed beside the percentages. I assigned them to 'Lymphoid cells' (blue) and 'Myeloid cells' (red) only by matching the colours of the plot next to it. / Panel a, bar chart: the control bars also carry percentages (Cont.1: 35.75% and 64.25%; Cont.2: 37.55% and 62.45%). […]

Setting [3] is: compared to control or Alms1^MUT libraries.
Setting [4] is: tumors harvested 10 days after Meth A challenge.

Consider 1 sequence from publication PMC8571378, “Reversion analysis reveals the in vivo immunogenicity of a poorly MHC I-binding cancer neoepitope” (Nature Communications, 2021).

Consider “DPSSTYIRPFETKVKLLD [18-mer peptide with the mutant amino acid near the center]”, for which the “effect of CD4 T cell depletion on tumor rejection” value (from here on “effect of CD4 T cell depletion”) in series [1] (250 µg GK1.5, priming phase (6 days before first immunization), 95,000 Meth A cells, listed as Ccdc85cMUT) is reported as “not statistically significant”. The “effect of CD4 T cell depletion” value in series [1] (250 µg GK1.5, priming phase (6 days before first immunization), 95,000 Meth A cells, listed as Ccdc85c^MUT) was “did not lead to reproducible and statistically significant abrogation of tumor rejection”. For the same sequence, the “effect of CD4 T cell depletion” value in series [1] (depletion throughout the entire experiment including the effector phase) was “did not lead to reproducible and statistically significant abrogation of tumor rejection”. In addition, the “contribution of library to myeloid cluster Mφ1” value in series [2] (Mφ1) is reported as ~ 20%. In addition, the “contribution of library to myeloid cluster Mφ2” value in series [2] (Mφ2, highest apart from Mφ1) is on record as 13.4%. Moreover, in series [2] (Mφ3, lowest contribution), the “contribution of library to myeloid cluster Mφ3” value turned out to be 1.6%. In series [2] (setting [3]), the “expression of cytotoxicity (Gzmb, Prf, Nkg7) and effector function (Ifng) genes in T cells” value is given as “significantly higher”; the “expression of genes involved in TCR engagement (Nr4a1 and Irf4) in T cells” value is on record as “significantly higher”. In addition, the “expression of Eomes in T cells” value in series [2] (compared to other libraries) is “significantly higher”. Also, the “contribution of library to pooled activated CD4 and CD8 T cells (clusters 1 and 5)” value in series [2] (proliferating CD4/CD8 T excluded) was 31%. Further, in series [2] (setting [4]), the “Lymphoid cells, fraction of intra-tumoral immune cells” value was 62.68%; the “Myeloid cells, fraction of intra-tumoral immune cells” value was determined as 37.32%; the “fraction of NK cells from the NKC(1) (more cytotoxic and active) cluster” value is listed as ~ 80%.
